From patent publication US9453026B2, “ACC inhibitors and uses thereof” (Gilead Apollo, Inc., priority 2011, dated 2016) come the findings set out here.

SMILES strings stand for the structures.

The target in this assay is ACC2 (Homo sapiens, UniProt O00763). Nature of the assay: In vitro ACC2 inhibition assay (ADP-Glo). In kind it is biochemical. The conditions noted are these: read-out: ACC2. A digest of the protocol: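 Enzyme (human ACC1 or ACC2) and compound, serially diluted 1:3 over 11 points from a 600 uM DMSO stock, were preincubated 15 min before substrate addition.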
ACC2, sequence (O00763 whole entry, species assumed): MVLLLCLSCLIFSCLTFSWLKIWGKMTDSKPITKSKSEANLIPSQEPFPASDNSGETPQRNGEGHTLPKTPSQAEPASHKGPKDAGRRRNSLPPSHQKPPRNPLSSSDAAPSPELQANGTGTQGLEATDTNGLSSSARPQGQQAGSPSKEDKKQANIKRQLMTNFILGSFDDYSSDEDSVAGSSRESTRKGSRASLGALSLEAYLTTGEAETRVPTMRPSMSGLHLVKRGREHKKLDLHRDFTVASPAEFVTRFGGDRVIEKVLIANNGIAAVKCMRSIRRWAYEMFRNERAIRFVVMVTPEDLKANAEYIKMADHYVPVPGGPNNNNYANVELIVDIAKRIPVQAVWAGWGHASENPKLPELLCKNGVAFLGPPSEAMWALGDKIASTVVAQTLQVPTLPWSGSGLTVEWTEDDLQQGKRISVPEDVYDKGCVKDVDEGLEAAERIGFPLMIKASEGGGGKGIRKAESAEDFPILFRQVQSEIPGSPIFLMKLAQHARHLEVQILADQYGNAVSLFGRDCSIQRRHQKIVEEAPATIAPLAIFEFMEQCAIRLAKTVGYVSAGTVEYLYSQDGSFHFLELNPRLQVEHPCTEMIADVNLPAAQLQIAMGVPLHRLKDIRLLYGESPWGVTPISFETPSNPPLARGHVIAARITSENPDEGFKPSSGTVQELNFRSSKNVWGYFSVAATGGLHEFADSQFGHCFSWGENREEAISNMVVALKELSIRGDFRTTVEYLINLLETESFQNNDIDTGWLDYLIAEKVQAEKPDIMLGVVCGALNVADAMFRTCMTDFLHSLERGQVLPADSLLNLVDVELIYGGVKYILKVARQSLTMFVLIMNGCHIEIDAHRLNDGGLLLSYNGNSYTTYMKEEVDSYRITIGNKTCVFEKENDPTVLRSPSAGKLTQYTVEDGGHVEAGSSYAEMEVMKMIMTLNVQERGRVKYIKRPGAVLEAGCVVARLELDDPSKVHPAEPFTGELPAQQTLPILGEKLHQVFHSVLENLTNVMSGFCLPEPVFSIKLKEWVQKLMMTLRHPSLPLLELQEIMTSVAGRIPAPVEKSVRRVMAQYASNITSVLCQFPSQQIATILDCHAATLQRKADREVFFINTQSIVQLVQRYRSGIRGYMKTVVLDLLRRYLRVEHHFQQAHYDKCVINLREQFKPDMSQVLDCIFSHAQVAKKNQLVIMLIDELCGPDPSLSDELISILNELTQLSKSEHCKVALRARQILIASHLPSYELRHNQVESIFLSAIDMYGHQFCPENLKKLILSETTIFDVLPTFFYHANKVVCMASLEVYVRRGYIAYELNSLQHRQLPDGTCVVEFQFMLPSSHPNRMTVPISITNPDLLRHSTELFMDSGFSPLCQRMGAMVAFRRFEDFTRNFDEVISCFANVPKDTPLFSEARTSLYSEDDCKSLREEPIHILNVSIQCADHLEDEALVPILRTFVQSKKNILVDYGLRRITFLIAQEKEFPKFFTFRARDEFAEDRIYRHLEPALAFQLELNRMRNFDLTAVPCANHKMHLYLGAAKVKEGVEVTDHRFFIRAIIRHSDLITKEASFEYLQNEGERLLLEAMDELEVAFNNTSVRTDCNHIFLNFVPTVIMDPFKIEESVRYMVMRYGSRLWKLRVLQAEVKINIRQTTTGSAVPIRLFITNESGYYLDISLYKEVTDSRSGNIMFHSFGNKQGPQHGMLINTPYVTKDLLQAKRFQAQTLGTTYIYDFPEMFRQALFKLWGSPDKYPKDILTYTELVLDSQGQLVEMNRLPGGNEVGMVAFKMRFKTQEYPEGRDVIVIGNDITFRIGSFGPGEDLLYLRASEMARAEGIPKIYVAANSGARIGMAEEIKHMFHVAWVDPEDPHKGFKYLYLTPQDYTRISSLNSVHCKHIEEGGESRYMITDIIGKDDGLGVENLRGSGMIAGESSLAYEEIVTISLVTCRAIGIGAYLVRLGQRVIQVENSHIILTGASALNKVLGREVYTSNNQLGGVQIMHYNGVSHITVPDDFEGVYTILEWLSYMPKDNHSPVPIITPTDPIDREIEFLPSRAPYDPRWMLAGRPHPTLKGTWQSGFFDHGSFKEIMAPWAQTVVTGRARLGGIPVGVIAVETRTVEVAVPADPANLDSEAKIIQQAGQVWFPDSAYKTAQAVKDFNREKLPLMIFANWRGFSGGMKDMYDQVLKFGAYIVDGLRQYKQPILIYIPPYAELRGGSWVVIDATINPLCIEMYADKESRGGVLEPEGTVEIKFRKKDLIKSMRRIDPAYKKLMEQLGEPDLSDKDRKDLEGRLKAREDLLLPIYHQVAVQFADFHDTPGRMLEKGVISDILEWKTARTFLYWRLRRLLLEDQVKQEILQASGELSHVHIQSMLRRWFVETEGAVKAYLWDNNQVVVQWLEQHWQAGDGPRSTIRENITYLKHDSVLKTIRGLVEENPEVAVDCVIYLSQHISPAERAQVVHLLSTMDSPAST
On the technique in general: In ADP-Glo the light output rises with the ADP produced.
Regarding `COc1ccccc1[C@@H](Cn1c(=O)n(C(C)(C)C(=O)O)c(=O)c2c(C)c(-c3ncco3)sc21)OC1COC1` [I-262, (S)-2-(1-(2-(2-methoxyphenyl)-2-(oxetan-3-yloxy)ethyl)-5-methyl-6-(oxazol-2-yl)-2,4-dioxo-1,2-dihydrothieno[2,3-d]pyrimidin-3(4H)-yl)-2-methylpropanoic acid], the IC50 is under 5 µM.

With `Cc1c(C2=NCCO2)sc2c1c(=O)n(CC(=O)O)c(=O)n2CCc1ccccc1` [I-87, 2-[6-(4,5-dihydro-1,3-oxazol-2-yl)-5-methyl-2,4-dioxo-1-(2-phenylethyl)-1H,2H,3H,4H-thieno[2,3-d]pyrimidin-3-yl]acetic acid], the IC50 was under 5 µM.

On to `Cc1c(-c2ncco2)sc2c1c(=O)n(C(C)(C)C(=O)O)c(=O)n2C[C@@H](OC(C)C)c1ccccc1` [I-120, 2-methyl-2-[5-methyl-6-(1,3-oxazol-2-yl)-2,4-dioxo-1-[(2S)-2-phenyl-2-(propan-2-yloxy)ethyl]-1H,2H,3H,4H-thieno[2,3-d]pyrimidin-3-yl]propanoic acid], for which the IC50 lay in the range of 5 to 20 µM.

As to `Cc1c(-n2ccnc2)sc2c1c(=O)n(C(C)(C)C(=O)O)c(=O)n2CCc1ccccc1` [I-118, 2-[6-(1H-imidazol-1-yl)-5-methyl-2,4-dioxo-1-(2-phenylethyl)-1H,2H,3H,4H-thieno[2,3-d]pyrimidin-3-yl]-2-methylpropanoic acid], the IC50 is 20 to 50 µM.

As for `CCOC(=O)c1sc2c(c1C)c(=O)n(CC(=O)O)c(=O)n2C[C@@H](O)c1ccccc1` [I-77, 2-[6-(ethoxycarbonyl)-1-[(2S)-2-hydroxy-2-phenylethyl]-5-methyl-2,4-dioxo-1H,2H,3H,4H-thieno[2,3-d]pyrimidin-3-yl]acetic acid], the IC50 was 5 to 20 µM.

Take `CCOC(=O)c1sc2c(c1C)c(=O)n(C(C)(C)C(=O)O)c(=O)n2CCc1ccc(I)cc1` [I-95, 2-[6-(ethoxycarbonyl)-1-[2-(4-iodophenyl)ethyl]-5-methyl-2,4-dioxo-1H,2H,3H,4H-thieno[2,3-d]pyrimidin-3-yl]-2-methylpropanoic acid]: the IC50 is 20 to 50 µM.

In the case of `Cc1c(-c2ncco2)sc2c1c(=O)n(C(C)(C)C(=O)O)c(=O)n2C[C@H](OCC(F)(F)F)c1ccccc1` [I-137, 2-methyl-2-[5-methyl-6-(1,3-oxazol-2-yl)-2,4-dioxo-1-[2-phenyl-2-(2,2,2-trifluoroethoxy)ethyl]-1H,2H,3H,4H-thieno[2,3-d]pyrimidin-3-yl]propanoic acid], the IC50 is under 1 µM.

As to `CCOC(=O)c1sc2c(c1C)c(=O)n(CCO)c(=O)n2CCc1cccc(Cl)c1` [I-21], the IC50 was over 50 µM.

For `CCOC(=O)c1sc2c(c1C)c(=O)n([C@@H](C)C(=O)O)c(=O)n2CCc1ccccc1` [I-80, (2S)-2-[6-(ethoxycarbonyl)-5-methyl-2,4-dioxo-1-(2-phenylethyl)-1H,2H,3H,4H-thieno[2,3-d]pyrimidin-3-yl]propanoic acid], the IC50 was under 5 µM.

As to `Cc1c(-c2ncco2)sc2c1c(=O)n(C(C)(C)C(=O)O)c(=O)n2C[C@H](OC[C@H](C)O)c1ccccc1` [I-178, 2-[1-[(2R)-2-[(2S)-2-hydroxypropoxy]-2-phenylethyl]-5-methyl-6-(1,3-oxazol-2-yl)-2,4-dioxo-1H,2H,3H,4H-thieno[2,3-d]pyrimidin-3-yl]-2-methylpropanoic acid], the IC50 was under 5 µM.

As for `Cc1c(-c2ncco2)sc2c1c(=O)n(C(C)(C)C(=O)O)c(=O)n2C[C@H](O[C@H](C)CO)c1ccccc1` [I-184, 2-[1-[(2R)-2-[[(2R)-1-hydroxypropan-2-yl]oxy]-2-phenylethyl]-5-methyl-6-(1,3-oxazol-2-yl)-2,4-dioxo-1H,2H,3H,4H-thieno[2,3-d]pyrimidin-3-yl]-2-methylpropanoic acid], the IC50 was under 1 µM.

As for `Cc1c(C2CCC2)sc2c1c(=O)n(C(C)(C)C(=O)O)c(=O)n2CCc1ccccc1` [I-125, 2-[6-cyclobutyl-5-methyl-2,4-dioxo-1-(2-phenylethyl)-1H,2H,3H,4H-thieno[2,3-d]pyrimidin-3-yl]-2-methylpropanoic acid], the IC50 lay within 5 to 20 µM.

In the case of `COCc1sc2c(c1C)c(=O)n(CCO)c(=O)n2CCc1ccccc1` [I-39, 3-(2-hydroxyethyl)-6-(methoxymethyl)-5-methyl-1-(2-phenylethyl)-1H,2H,3H,4H-thieno[2,3-d]pyrimidine-2,4-dione], the IC50 fell in the range of 20 to 50 µM.

Turning to `CCOC(=O)c1sc2c(c1C)c(=O)n(CC)c(=O)n2CCc1ccccc1` [I-7, ethyl 3-ethyl-5-methyl-2,4-dioxo-1-(2-phenylethyl)-1H,2H,3H,4H-thieno[2,3-d]pyrimidine-6-carboxylate], the IC50 was over 50 µM.

Take `CCOC(=O)c1sc2c(c1C)c(=O)n(CC#N)c(=O)n2CCc1ccccc1` [I-43]: the IC50 lay in the range of 5 to 20 µM.

Consider `CCOC(=O)c1sc2c(c1C)c(=O)n(C(C)(C)C(=O)O)c(=O)n2CCc1ccccc1OC(F)(F)F` [I-106, 2-[6-(ethoxycarbonyl)-5-methyl-2,4-dioxo-1-[2-[2-(trifluoromethoxy)phenyl]ethyl]-1H,2H,3H,4H-thieno[2,3-d]pyrimidin-3-yl]-2-methylpropanoic acid], for which the IC50 was under 5 µM.

For the molecule `CCNC(=O)c1sc2c(c1C)c(=O)n(CCO)c(=O)n2CCc1ccccc1` [I-18], the IC50 was over 50 µM.

On to `Cc1c(-c2ncco2)sc2c1c(=O)n(C(C)(C)C(=O)O)c(=O)n2C[C@H](O[C@H]1CC[C@H](N)CC1)c1ccccc1` [I-166, 2-(1-((R)-2-(((1r,4R)-4-aminocyclohexyl)oxy)-2-phenylethyl)-5-methyl-6-(oxazol-2-yl)-2,4-dioxo-1,2-dihydrothieno[2,3-d]pyrimidin-3(4H)-yl)-2-methylpropanoic acid], for which the IC50 was under 1 µM.

`Cc1c(C2CC2)sc2c1c(=O)n(C(C)(C)C(=O)O)c(=O)n2CCc1ccccc1` [I-132, 2-[6-cyclopropyl-5-methyl-2,4-dioxo-1-(2-phenylethyl)-1H,2H,3H,4H-thieno[2,3-d]pyrimidin-3-yl]-2-methylpropanoic acid]: the IC50 lay in the range of 20 to 50 µM.

For `CCOC(=O)c1sc2c(c1C)c(=O)n(CC(=O)O)c(=O)n2Cc1ccc2c(c1)OCO2` [I-50, 2-[1-(2H-1,3-benzodioxol-5-ylmethyl)-6-(ethoxycarbonyl)-5-methyl-2,4-dioxo-1H,2H,3H,4H-thieno[2,3-d]pyrimidin-3-yl]acetic acid], the IC50 is over 50 µM.

Regarding `Cc1c(-n2nccn2)sc2c1c(=O)n(C(C)(C)C(=O)O)c(=O)n2CCc1ccccc1` [I-122, 2-methyl-2-[5-methyl-2,4-dioxo-1-(2-phenylethyl)-6-(2H-1,2,3-triazol-2-yl)-1H,2H,3H,4H-thieno[2,3-d]pyrimidin-3-yl]propanoic acid], the IC50 is under 1 µM.

`CCOC(=O)c1sc2c(c1C)c(=O)n(CCOCc1ccccc1)c(=O)n2CCc1ccccc1` [I-10, ethyl 3-[2-(benzyloxy)ethyl]-5-methyl-2,4-dioxo-1-(2-phenylethyl)-1H,2H,3H,4H-thieno[2,3-d]pyrimidine-6-carboxylate]: the IC50 was over 50 µM.

Turning to `CCOC(=O)c1sc2c(c1C)c(=O)n(C[C@H](C)O)c(=O)n2CCc1ccccc1` [I-82, ethyl 3-[(2S)-2-hydroxypropyl]-5-methyl-2,4-dioxo-1-(2-phenylethyl)-1H,2H,3H,4H-thieno[2,3-d]pyrimidine-6-carboxylate], the IC50 fell in the range of 5 to 20 µM.
